Results published in patent publication US20080004561A1, “Method for Treating Oncological, Virulent and Somatic Diseases, Method for Controlling Treatment Efficiency, Pharmaceutical Agents and Composition for Carrying Out Said Treatment” (priority 2005, published 2008).
“Also recorded” adds a separate entry of the source.

How the values were obtained:
[1] = test system: blood plasma DNA; assay: Blood plasma DNA concentration after end of DNase treatment course (Example 2); type: in vivo; details: Erlich carcinoma mice
Description: Fresh blood plasma (not more than 3-4 hours after isolation) with anticoagulant (sodium citrate) addition was centrifuged on Ficoll-PlaquePlus (Amersham-Pharmacia) step at 1500 g for 20 minutes at room temperature. Plasma (½ of all amount) was neatly isolated avoiding touching cells sediment on ficoll step and was centrifuged at 10 000 g for 30 minutes to eliminate cells and debris. Supernatant was taken away not touching sediment and up to 1% of sarcosile, up to 50 mM of tris HCl pH 7,6, up to 20 mM EDTA, up to 400 mM NaCl and equal volume of phenol—chloroform mixture 1:1 were added. Received emulsion was incubated at 65° C. for 2 hours than phenol-chloroform was separated by centrifuging at 5000 g during 20 minutes at room temperature. Deproteinization by phenol-chloroform method was identically repeated for three times after what water phase was processed by chloroform and after it by diethyl ether.
Organic solvents' separation was done by centrifuging at 5000 g during 15 minutes. Equal part of isopropanol was added to water phase and incubated during night at 0° C.
After sedimentation nucleic acids were separated by centrifuging at 10 000 g during 30 minutes. […]
DNA was isolated by method that is mentioned above. DNA amount was spectrophotometrically measured. […]

[2] = test system: tumor cells; assay: In vitro effect of DNase I on tumor cells' growth; type: cell-based; details: DNase I concentration up to 100 mkg/ml
[3] = test system: Erlich carcinoma; assay: Influence of DNase administrated twice a day on Erlich tumor growth at mice (Example 1); type: in vivo; details: day 3 to 7, 7 day after transplantation
Description: Bovine pancreatic DNase I (Fermentas) and human recombinant DNase I (Dornase; Gentech) were used. DNase I solution for injections were prepared by dissolving of DNase matrix solution in sterile phosphate buffer directly before administration. Cyclophosphamide and Doxorubicin were dissolved according to instruction.
Blood plasma DNA of tumor-bearing mice was received according to technique described above. Highly metastatic and low metastatic stains of mice' Luice lung carcinoma and Erlich carcinoma were used. Cells were cultivated in RPMI-1640 media with adding of 10% embryonic calf serum, 1% penicillin—streptomycin in 5% carbon dioxide atmosphere. For tumor induction in mice, cells were cultivated until the monolayer, than were detached with trypsin-EDTA solution. Cells were washed trice by centrifuging in phosphate buffer and were resuspensed until their concentration have become 0.5×10^7/ml. Viability was defined by inclusion of methylene blue in hemocytometer. Suspensions that contained 95% of viable cells were used for administration to animals.
Mice of C57B1 line and white not thoroughbred mice from “Rappolovo” animal house were used. Weight of animals was 24-26 grams. Animals were contained in cages, for 6-7 mice per one cage on a standard diet without water restriction. LLC cells in dose of 5×10^5 in 100 mkl of phosphate buffer were injected in soft tissues of thigh. Erlich tumor was subcutaneously replanted on the right side by injection of 0.2 ml 10% cells' suspension in isotonic sodium chloride solution.
Influence of DNase I Administrated Twice a Day on Erlich Tumor Growth at Mice
Group 1—10 mice transplanted with Erlich carcinoma (control).
Group 2—10 mice transplanted with Erlich carcinoma. Mice were intraperitoneally injected with DNase at 1 mg/kg dose in […] of phosphate buffer twice a day starting from 3 up to 7 day after tumor transplantation.
Group 3—10 mice transplanted with Erlich carcinoma. Mice were intraperitoneally injected with DNase at 2 mg/kg dose in […] of phosphate buffer twice a day starting from 3 up to 7 day after tumor transplantation.

[4] = test system: HPRT gene's mutations in blood T-lymphocytes; assay: Frequency of HPRT gene's mutations in blood T-lymphocytes, somatic mosaicism model (Example 18); type: in vivo; details: patients on Neovir after tumor surgery; human recombinant DNase I 200 mkg/kg intravenously 4 times a day during three weeks
Description: Frequency of HPRT gene's mutations in blood T-lymphocytes was studied as a model of somatic mosaicism. Human HPRT gene (chromosome Xq26) encodes enzyme that is constitutionally expressing but not essential and is involved in metabolism of purine nucleotides. Cloning was done according to Bigbee W. method (Bigbee W. Et al., Mutation Res., 1998, v. 397, pp. 119-136).

[5] = test system: DNA from biofilm matrix of Escherichia coli; assay: DNAase I processing of DNA from biofilm matrix, electrophoresis (Example 12); type: biochemical; details: DNA processed for 3 hours by DNAase I at 37° C.
Description: (§1) Biofilms of Escherichia coli and Staphylococcus aureus were used in experiments. Biofilms were washed off by phosphate buffer from agar. Cells and matrix were separated by centrifuging. Standard phenol-chloroform method was used for DNA extraction from matrix. DNA amount was estimated by spectrophotometric analysis with wave's length 260 nm (SF-46). Received DNA was researched by electrophoresis in 0.8% […] gel with ethidium bromide staining.
(§2) One part of received DNA was processed for 3 hours by DNAase I at 37° C. After electrophoretic separation of processed and not processed DNA it was found out that: […]

[6] = test system: DNA from biofilm matrix of Staphylococcus aureus; assay: as above; type: biochemical; details: DNA processed for 3 hours by DNAase I at 37° C.
Description: as §1, §2

[7] = test system: DNA from fresh blood serum; assay: Sensitivity of circulating blood DNA to DNase action, electrophoresis (Example 9); type: biochemical, volunteers; details: DNA processed by DNase I for 3 hours at 37° C.
Description: DNA from fresh blood serum (mixture of blood received from 5 volunteers ) was isolated by standard phenol-chloroform method.
Sediment of nucleic acids was washed by 70% ethanol and dissolved in tris-EDTA buffer. Spectrophotometry with wave's length 260 nm (SF-46) was used for quantification of DNA. DNA was researched by electrophoresis in 0.8% […] gel with ethidium bromide staining. One part of received DNA was processed by DNase I for 3 hours at 37° C. After electrophoretic separation of processed and not processed DNA it was found out that: […]

[8] = DNase 1 mg/kg intraperitoneally twice a day
[9] = DNase 2 mg/kg intraperitoneally twice a day

DNase
Blood plasma DNA concentration ([1]; DNase 0.5 mg/kg four times a day): 38.5 ng/mL | Blood plasma DNA concentration ([1]; DNase 1 mg/kg twice a day): 55.1 ng/mL | Effect on tumor cells' growth in vitro [2]: does not cause direct cytotoxic effect; also recorded: not seen any suppressive effect | TGI % [3, 8]: 61% | Tumor's volume [3, 8]: 33 +/− 6 | TGI % [3, 9]: 60% | Tumor's volume [3, 9]: 34 +/− 7 | Incidence of HPRT-deficient clones, times less than with immunostimulating therapy only [4]: 3 times | DNA band after electrophoresis [5]: disappeared completely | DNA band after electrophoresis [6]: disappeared completely | DNA band after electrophoresis [7]: disappeared completely
